How the values were obtained:
Assay type in all cases: in vivo
[1] = Changes in blood concentration over time of orally ingested EGCg and caffeine in humans; details: oral ingestion
[2] = Absorbability of EGCg in humans: blood EGCg level after drinking drinks A to C (chemiluminescence-HPLC)
Description: Caffeine formulation (manufactured by […] Pharmaceutical Co., Ltd.), EGCg formulation (content of EGCg: 90% or more, trade name: Teavigo, manufactured by DSM Nutritional Products), ascorbic acid and citric acid were added in the amounts shown in Table 2, respectively, to 190 ml of water, which were dissolved. Thereafter, each of the resulting mixtures was poured into a can, respectively, which was sealed and sterilized by heat and then drinks A to C were prepared. […] Each of subjects drank one of the drinks […] minutes after the drinking was measured by chemiluminescence-HPLC. The measurement was subjected in three subjects for each drink. The relationship between the C/E ratio and the blood EGCg level is graphically represented in accordance with Table 2, which is shown as FIG. 2. According to Table 2, the blood EGCg level of subjects is the highest in the case that the drink B having the C/E ratio of 0.4 has been taken by the subjects, and the blood EGCg level falls in either case where the C/E ratio is lower or higher than that.

[3] = Absorbability of EGCg in rats: blood EGCg level after oral administration of caffeine and EGCg solutions (chemiluminescence-HPLC); details: average of six rats
Description: Teavigo, manufactured by DSM Nutritional Products) in 1 ml of water were prepared. In accordance with Experimental plots 1 to 7 shown in Table 1, the solution of caffeine and the solution of EGCg were orally administered to rats. After 60 minutes from the administration, the blood EGCG level in rats was measured by chemiluminescence-HPLC. The measurement was subjected by using six rats for each Experimental plot. The relationship between the C/E ratio and the blood EGCg level is graphically represented in accordance with Table 1, which is shown as FIG. 1. […] When the C/E ratio is lower or higher than that, the blood EGCg level is reduced.

| Absorbability of EGCg relative to EGCg alone ([2]; C/E ratio 0.18 to 0.70) | Absorbability of EGCg relative to normal green tea infusion ([2]; C/E ratio 0.18 to 0.70) | Absorbability of EGCg relative to EGCg alone ([2]; C/E ratio 0.20 to 0.60) | Absorbability of EGCg relative to normal green tea infusion ([2]; C/E ratio 0.20 to 0.60) | Increase of absorbability of EGCg relative to normal tea ([2]; optimized C/E ratio, maximum) | Blood EGCg level ([3]; Exp. plot 1: rats, caffeine 0 mg + EGCg 30 mg, C/E ratio 0, 60 minutes after administration) | Blood EGCg level ([3]; Exp. plot 2: rats, caffeine 3 mg + EGCg 30 mg, C/E ratio 0.1, 60 minutes after administration) | Blood EGCg level ([3]; Exp. plot 3: rats, caffeine 6 mg + EGCg 30 mg, C/E ratio 0.2, 60 minutes after administration) | Blood EGCg level ([3]; Exp. plot 4: rats, caffeine 15 mg + EGCg 30 mg, C/E ratio 0.5, 60 minutes after administration) | Blood EGCg level ([3]; Exp. plot 5: rats, caffeine 30 mg + EGCg 30 mg, C/E ratio 1.0, 60 minutes after administration) | Blood EGCg level ([3]; Exp. plot 6: rats, caffeine 45 mg + EGCg 30 mg, C/E ratio 1.5, 60 minutes after administration) | Blood EGCg level ([3]; Exp. plot 7: rats, caffeine 65 mg + EGCg 30 mg, C/E ratio 2.2, 60 minutes after administration) | SMILES | Time at which blood concentration reaches a maximum value [1] |
| --- | --- | --- | --- | --- | --- | --- | --- | --- | --- | --- | --- | --- | --- |
| ≥ 1.7 times | ≥ 1.1 times | ≥ 1.75 times | ≥ 1.15 times | up to 1.2 times | 229 pmol/mL | 243 pmol/mL | 270 pmol/mL | 221 pmol/mL | 153 pmol/mL | 90 pmol/mL | 94 pmol/mL | O=C(O[C@@H]1Cc2c(O)cc(O)cc2O[C@@H]1c1cc(O)c(O)c(O)c1)c1cc(O)c(O)c(O)c1 [EGCg, epigallocatechin gallate] | about 1.5 hours |
|  |  |  |  |  |  |  |  |  |  |  |  | Cn1c(=O)c2c(ncn2C)n(C)c1=O [caffeine, reference compound] | about 1.5 hours |

— patent publication US20090047408A1, “Method for Improving Absorbability of Epigallocatechin Gallate, Foods, Drinks and Food/Drink Materials Using the Same and Method for Producing the Same” (ITO EN, LTD, priority 2005, published 2009)
